Data on two molecules can be found in patent publication EP0248858B1, “NOVEL PHOSPHO-COMPOUNDS AND M[…]” (Max-Planck-Gesellschaft zur Förderung der Wissenschaften …, priority 1985, dated 1987).

In the series the test system is chemisch induzierten Mamma-Karzinomen. The experiment in a line: chemically induced mammary carcinoma of the rat, oral administration as drinking solution. Particulars: Ratten; for Remission von chemisch induzierten Mamma-Karzinomen: oral (Trinklösung), Tagesdosen von 20, 40 und 60 mg/kg Körpergewicht; for Verträglichkeit compared with 1-Octadecyl-2-methyl-rac-glycero-3-phospho-cholin / Wirksamkeit compared with 1-Octadecyl-2-methyl-rac-glycero-3-phospho-cholin: oral, comparison with 1-Octadecyl-2-methyl-rac-glycero-3-phospho-cholin. The series is classed as in vivo. From the text:
Die erfindungsgemäßen Arzneimittel, welche als Wirkstoffe eine Verbindung der allgemeinen Formel I enthalten, besitzen eine ausgeprägte cytotoxische Wirksamkeit, die sowohl in vivo am chemisch induzierten Mamma-Karzinom der Ratte, als auch in vitro an Leukämiezellen in der Zellkultur nachgewiesen wurde. Darüberhinaus wurden in einer klinischen Pilotstudie bei Patientinnen mit Mamma-Karzinom Hautmetastasen zur vollständigen Abheilung bei topischer Anwendung gebracht.
Für die orale Verabreichung werden die Verbindungen der allgemeinen Formel I zweckmäßig in Form einer Trinklösung angewendet. Als Träger eignen sich beispielsweise Milch, Kakao, Fruchtsaft oder Trinkwasser. […] Bei dem für diese Versuche verwendeten Tumormodell handelt es sich um ein sogenanntes hartes Modell. Dies bedeutet, daß die an diesem Modell erstellten Befunde in den meisten Fällen auch auf die humane Situation übertragbar sind.

Consider `CCCCCCCCCCCCCCCCOP(=O)([O-])OCC[N+](C)(C)C` [Hexadecylphosphocholin], for which the “Remission von chemisch induzierten Mamma-Karzinomen” value is reported as “vollständigen Remission”, the “Verträglichkeit compared with 1-Octadecyl-2-methyl-rac-glycero-3-phospho-cholin” value was “besser verträglich” and the “Wirksamkeit compared with 1-Octadecyl-2-methyl-rac-glycero-3-phospho-cholin” value is listed as “besser wirksam”.

`CCCCCCCC/C=C\CCCCCCCCOP(=O)([O-])OCC[N+](C)(C)C` [Oleylphosphocholin]: the “Remission von chemisch induzierten Mamma-Karzinomen” value was “vollständigen Remission”, the “Verträglichkeit compared with 1-Octadecyl-2-methyl-rac-glycero-3-phospho-cholin” value is “besser verträglich” and the “Wirksamkeit compared with 1-Octadecyl-2-methyl-rac-glycero-3-phospho-cholin” value is listed as “besser wirksam”.
